The values that follow come from US8796296B2, “Aminopyrimidine derivatives as LRRK2 modulators” (Genentech, Inc., priority 2011, dated 2014).

As usually defined, the Ki is a dissociation constant, usually derived from enzyme kinetics or from competition with a known ligand.

Sequence of LRRK2 (Q5S007 whole entry G2019S): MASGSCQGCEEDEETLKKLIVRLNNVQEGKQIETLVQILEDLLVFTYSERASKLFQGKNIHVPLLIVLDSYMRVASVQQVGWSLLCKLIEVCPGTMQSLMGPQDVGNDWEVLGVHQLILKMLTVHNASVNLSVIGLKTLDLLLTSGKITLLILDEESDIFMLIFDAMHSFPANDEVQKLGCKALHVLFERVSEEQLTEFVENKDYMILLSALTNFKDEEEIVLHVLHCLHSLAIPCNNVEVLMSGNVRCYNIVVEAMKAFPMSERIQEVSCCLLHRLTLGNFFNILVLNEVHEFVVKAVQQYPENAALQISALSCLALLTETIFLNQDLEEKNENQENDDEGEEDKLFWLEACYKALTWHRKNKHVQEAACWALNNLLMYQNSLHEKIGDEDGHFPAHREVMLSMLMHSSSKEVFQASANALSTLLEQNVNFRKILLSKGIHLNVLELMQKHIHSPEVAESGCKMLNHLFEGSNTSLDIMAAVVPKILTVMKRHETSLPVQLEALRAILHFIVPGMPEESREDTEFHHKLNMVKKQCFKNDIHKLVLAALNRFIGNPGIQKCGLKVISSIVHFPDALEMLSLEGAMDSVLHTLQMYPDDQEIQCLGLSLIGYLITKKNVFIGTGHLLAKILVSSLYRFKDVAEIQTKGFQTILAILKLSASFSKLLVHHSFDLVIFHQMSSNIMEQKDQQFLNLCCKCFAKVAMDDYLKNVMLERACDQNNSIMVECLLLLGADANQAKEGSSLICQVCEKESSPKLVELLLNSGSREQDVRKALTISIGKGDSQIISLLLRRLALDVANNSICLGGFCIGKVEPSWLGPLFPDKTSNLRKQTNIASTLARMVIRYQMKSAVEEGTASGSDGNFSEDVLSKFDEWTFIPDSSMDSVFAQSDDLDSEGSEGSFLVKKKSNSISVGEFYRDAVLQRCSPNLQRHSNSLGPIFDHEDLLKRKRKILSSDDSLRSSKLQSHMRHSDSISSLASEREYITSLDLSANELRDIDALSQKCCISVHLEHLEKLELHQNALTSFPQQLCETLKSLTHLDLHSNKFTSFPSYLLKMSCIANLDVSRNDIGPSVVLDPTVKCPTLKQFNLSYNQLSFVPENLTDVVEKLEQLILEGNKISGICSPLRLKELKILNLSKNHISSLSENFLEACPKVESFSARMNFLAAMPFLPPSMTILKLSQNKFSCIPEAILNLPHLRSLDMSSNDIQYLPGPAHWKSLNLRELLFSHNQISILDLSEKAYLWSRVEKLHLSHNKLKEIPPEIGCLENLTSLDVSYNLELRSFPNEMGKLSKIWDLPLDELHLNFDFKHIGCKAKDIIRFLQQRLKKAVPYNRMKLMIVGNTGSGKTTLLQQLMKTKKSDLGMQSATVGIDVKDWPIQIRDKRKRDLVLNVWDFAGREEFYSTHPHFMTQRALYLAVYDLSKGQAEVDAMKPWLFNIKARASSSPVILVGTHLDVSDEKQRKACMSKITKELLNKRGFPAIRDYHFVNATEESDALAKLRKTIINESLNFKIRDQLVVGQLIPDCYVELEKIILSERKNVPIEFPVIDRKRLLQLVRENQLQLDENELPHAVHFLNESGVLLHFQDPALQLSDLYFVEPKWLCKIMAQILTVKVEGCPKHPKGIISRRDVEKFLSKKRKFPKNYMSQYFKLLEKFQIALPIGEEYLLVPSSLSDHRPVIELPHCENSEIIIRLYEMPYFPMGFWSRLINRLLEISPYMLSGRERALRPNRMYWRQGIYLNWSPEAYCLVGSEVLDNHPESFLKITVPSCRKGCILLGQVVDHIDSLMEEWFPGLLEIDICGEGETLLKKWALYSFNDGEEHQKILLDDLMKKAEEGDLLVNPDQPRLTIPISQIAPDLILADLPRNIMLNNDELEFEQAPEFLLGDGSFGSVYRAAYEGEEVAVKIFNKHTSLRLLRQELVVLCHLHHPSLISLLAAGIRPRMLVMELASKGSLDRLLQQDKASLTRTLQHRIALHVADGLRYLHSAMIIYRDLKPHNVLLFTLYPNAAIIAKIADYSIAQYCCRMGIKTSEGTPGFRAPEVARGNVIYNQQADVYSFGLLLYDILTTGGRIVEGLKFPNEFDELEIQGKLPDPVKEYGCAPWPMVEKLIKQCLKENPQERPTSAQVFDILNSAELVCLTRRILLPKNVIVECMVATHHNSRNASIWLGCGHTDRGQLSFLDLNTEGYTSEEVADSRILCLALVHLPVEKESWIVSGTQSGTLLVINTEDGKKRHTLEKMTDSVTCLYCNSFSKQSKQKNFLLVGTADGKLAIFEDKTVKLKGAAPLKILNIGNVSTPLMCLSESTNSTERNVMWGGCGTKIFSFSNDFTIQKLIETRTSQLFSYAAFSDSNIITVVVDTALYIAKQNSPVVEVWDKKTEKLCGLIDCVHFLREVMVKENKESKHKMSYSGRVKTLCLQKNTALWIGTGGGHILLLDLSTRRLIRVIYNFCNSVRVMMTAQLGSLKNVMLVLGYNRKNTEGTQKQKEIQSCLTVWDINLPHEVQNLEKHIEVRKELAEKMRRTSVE

The target of the assay is LRRK2 (Homo sapiens (Human), UniProt Q5S007, G2019S). As to the kind of experiment: In Vitro LRRK2 LabChip Assay (LRRK2 Ki). Format: biochemical. As for the experimental part:
In Vitro LRRK2 LabChip Assay
This assay was used to determine a compound's potency in inhibiting activity of LRRK2 by determining, Kiapp, IC50, or percent inhibition values. In a polypropylene plate, LRRK2, fluorescently-labeled peptide substrate, ATP and test compound were incubated together. Using a LabChip 3000 (Caliper Life Sciences), after the reaction the substrate was separated by capillary electrophoresis into two populations: phosphorylated and unphosphorylated. The relative amounts of each were quantitated by fluorescence intensity. LRRK2 Ki was determined according to the equation: Y=V0*(1−((x+Ki*(1+S/Km)+Et)/(2*Et)−(((x+Ki*(1+S/Km)+Et)^2−(4*Et*x))^0.5)/(2*Et))). Ki values in Table 4 and elsewhere herein are shown in μM.
Assay conditions and materials used were as follows:
LRRK2 Wild type in 5 mM MgCl2: 15 nM (Invitrogen lot #500607F)
Kinase reaction time: 2 hours
Wild type in 5 mM MgCl2: 80 μM
Kinase: LRRK2 G2019S (Invitrogen cat #PV4882). • LRRK2 Wild type (Invitrogen cat #PV4874).
Substrate: 5FAM-GAGRLGRDKYKTLRQIRQ-CONH2
Complete Reaction Buffer: H2O/25 mM Tris, pH 8.0/5 mM MgCl2/2 mM DTT/0.01% Triton X-100.
For serial dilutions, 34.6 μl DMSO was added to columns 3-24. For the assay controls, 37.5 μl DMSO was added to columns 1 and 2 of rows A and P. a,d and 50 μl 25 μM G-028831 (Staurosporine) was added to columns 1 and 2, row B. For the samples: to start at 100 μM, 37.5 μl DMSO was to columns 1 and 2, then 12.5 μl 10 mM compound; to start at 10 μM, 78 μl DMSO was added to columns 1 & 2, then 2 μl 10 mM compound; and to start at 1 μM, 25 μM compound (2 μl 10 mM cmpd+798 μl DMSO) was added to empty columns 1 and 2. A Precision instrument was used to perform 1:3.16 serial dilutions (“PLK_BM_serial_halflog”).
ATP was diluted to 282.1 μM in Complete Kinase Buffer (final concentration was 130 μM).
In Complete Reaction Buffer, substrate was diluted to 4 μM. Equal volumes of Complete Reaction Buffer and 4 μM substrate were combined to obtain the blank. Equal volumes of Complete Reaction Buffer and 4 μM substrate were combined and to the combined solution was added 2× final LRRK2 concentration.
To a 50 μl polypropylene plate, 5 μl/well buffer/substrate was added by hand to Blank wells. A Biomek FX was used to start the kinase reaction (“PLK SAR 23 ATP”). The following were added to the appropriate wells:
The plate was incubated for 2 hours in the dark. Biomek FX was used to stop the kinase reaction (“PLK Stop”), and 10 μl/well Stop solution was added to the Assay Plate.
Results were read on the LabChip 3000.
The LabChip 3000 was run using the job “LRRK2 IC50” with the following job settings: […]
For `CNc1nc(Nc2cc3c(cc2OC)C(=O)N(C)CC3)ncc1C#N` [Compound 16, 2-(7-methoxy-2-methyl-1-oxo-1,2,3,4-tetrahydroisoquinolin-6-ylamino)-4-(methylamino)pyrimidine-5-carbonitrile], the Ki stood at 44 nM.
The same measure for `CNc1nc(Nc2cc3oc(C(=O)N(C)C)cc3cc2OC)ncc1C(F)(F)F` [Compound 3, 5-methoxy-N,N-dimethyl-6-((4-(methylamino)-5-(trifluoromethyl)pyrimidin-2-yl)amino)benzofuran-2-carboxamide]: 1 nM.
The same measure for `CNc1nc(Nc2cc3c(cc2Cl)c(C(=O)N2CCOCC2)cn3C)ncc1C(F)(F)F` [Compound 22, (5-chloro-1-methyl-6-(4-(methylamino)-5-(trifluoromethyl)pyrimidin-2-ylamino)-1H-indol-3-yl)(morpholino)methanone]: 3 nM.
The same measure for `CNc1nc(Nc2cc3c(cc2OC)N(C)C(=O)C(C)(C)O3)ncc1Cl` [Compound 2, 7-((5-chloro-4-(methylamino)pyrimidin-2-yl)amino)-6-methoxy-2,2,4-trimethyl-2H-benzo[b][1,4]oxazin-3(4H)-one]: 1 nM.
As to `CNc1nc(Nc2cc3c(cc2Cl)C(=O)N(C)C3)ncc1C(F)(F)F` [Compound 9, 6-chloro-2-methyl-5-(4-(methylamino)-5-(trifluoromethyl)pyrimidin-2-ylamino)isoindolin-1-one], the Ki was 1 nM. In other words, the single-digit nanomolar range.
The same measure for `CNc1nc(Nc2cc3c(cc2Cl)n(C)c(=O)n3C)ncc1C(F)(F)F` [Compound 4, 5-chloro-1,3-dimethyl-6-((4-(methylamino)-5-(trifluoromethyl)pyrimidin-2-yl)amino)-1H-benzo[d]imidazol-2(3H)-one]: 2 nM.
The same measure for `CNc1nc(Nc2cc3c(cc2OC)N(C)C(=O)C(C)(C)O3)ncc1C(F)(F)F` [Compound 12, 6-methoxy-2,2,4-trimethyl-7-(4-(methylamino)-5-(trifluoromethyl)pyrimidin-2-ylamino)-2H-benzo[b][1,4]oxazin-3(4H)-one]: 8 nM; for `CNc1nc(Nc2cc3cnn(C)c(=O)c3cc2OC)ncc1C(F)(F)F` [Compound 17, 7-methoxy-2-methyl-6-(4-(methylamino)-5-(trifluoromethyl)pyrimidin-2-ylamino)phthalazin-1(2H)-one]: 27 nM; for `CNc1nc(Nc2cc3c(cc2OC)c(C(=O)N2CCOCC2)cn3C)ncc1C(F)(F)F` [Compound 30, (5-methoxy-1-methyl-6-(4-(methylamino)-5-(trifluoromethyl)pyrimidin-2-ylamino)-1H-indol-3-yl)(morpholino)methanone]: 1 nM.
On to `CNc1nc(Nc2cc3c(cc2OC)C(=O)N(C)CC3)ncc1C(F)(F)F` [Compound 15, 7-methoxy-2-methyl-6-(4-(methylamino)-5-(trifluoromethyl)pyrimidin-2-ylamino)-3,4-dihydroisoquinolin-1(2H)-one], for which the affinity, expressed as Ki, was 7 nM.
The value for `CNc1nc(Nc2ccc3c(c2OC)CN(C)C3=O)ncc1C(F)(F)F` [Compound 11, 4-methoxy-2-methyl-5-(4-(methylamino)-5-(trifluoromethyl)pyrimidin-2-ylamino)isoindolin-1-one] was 1 nM; that for `CNc1nc(Nc2cc3oc(=O)[nH]c3cc2Cl)ncc1Cl` [Compound 13, 5-chloro-6-(5-chloro-4-(methylamino)pyrimidin-2-ylamino)benzo[d]oxazol-2(3H)-one] was 4 nM.
In turn, `CNc1nc(Nc2ccc3c(c2OC)CN(C2CC2)C3=O)ncc1C(F)(F)F` [Compound 10, 2-cyclopropyl-4-methoxy-5-(4-(methylamino)-5-(trifluoromethyl)pyrimidin-2-ylamino)isoindolin-1-one] came in with a Ki of 7 nM.
The same measure for `CNc1nc(Nc2ccc3c(c2OC)CN(C(C)(C)O)C3=O)ncc1C(F)(F)F` [Compound 19, 2-(2-hydroxypropan-2-yl)-4-methoxy-5-(4-(methylamino)-5-(trifluoromethyl)pyrimidin-2-ylamino)isoindolin-1-one]: 4 nM; for `CNc1nc(Nc2cc3oc(=O)n(C)c3cc2Cl)ncc1C(F)(F)F` [Compound 5, 5-chloro-3-methyl-6-((4-(methylamino)-5-(trifluoromethyl)pyrimidin-2-yl)amino)benzo[d]oxazol-2(3H)-one]: 4 nM.
The same measure for `CNc1nc(Nc2cc3c(cc2Cl)c(C(=O)N2CCN(C)CC2)cn3C)ncc1C(F)(F)F` [Compound 31, (5-chloro-1-methyl-6-(4-(methylamino)-5-(trifluoromethyl)pyrimidin-2-ylamino)-1H-indol-3-yl)(4-methylpiperazin-1-yl)methanone]: 1 nM; for `CNc1nc(Nc2cc3c(cc2Cl)C(=O)N(C)CCO3)ncc1C(F)(F)F` [Compound 1, 7-chloro-4-methyl-8-(4-(methylamino)-5-(trifluoromethyl)pyrimidin-2-ylamino)-3,4-dihydrobenzo[f][1,4]oxazepin-5(2H)-one]: 3 nM.
The same measure for `CNc1nc(Nc2cc3nc(C)oc3cc2Cl)ncc1C(F)(F)F` [Compound 6, N^2-(6-chloro-2-methylbenzo[d]oxazol-5-yl)-N^4-methyl-5-(trifluoromethyl)pyrimidine-2,4-diamine]: 5 nM.
In the case of `CNc1nc(Nc2cc3c(cc2Cl)C(=O)N(C)C3)ncc1Cl` [Compound 8, 6-chloro-5-(5-chloro-4-(methylamino)pyrimidin-2-ylamino)-2-methylisoindolin-1-one], the Ki came out at 3 nM.
The same measure for `CCN1Cc2c(ccc(Nc3ncc(C(F)(F)F)c(NC)n3)c2OC)C1=O` [Compound 18, 2-ethyl-4-methoxy-5-(4-(methylamino)-5-(trifluoromethyl)pyrimidin-2-ylamino)isoindolin-1-one]: 9 nM; for `CNc1nc(Nc2cc3c(cc2OC)C(=O)N(C)C3)ncc1C(F)(F)F` [Compound 21, 6-methoxy-2-methyl-5-(4-(methylamino)-5-(trifluoromethyl)pyrimidin-2-ylamino)isoindolin-1-one]: 5 nM.
For the molecule `CCNc1nc(Nc2cc3c(cc2Cl)c(C(=O)N2CCOCC2)cn3C)ncc1C(F)(F)F` [Compound 29], the Ki was determined as 1 nM.
The same measure for `CNc1nc(Nc2ccc3c(c2OC)CN(C2COC2)C3=O)ncc1C(F)(F)F` [Compound 20, 4-methoxy-5-(4-(methylamino)-5-(trifluoromethyl)pyrimidin-2-ylamino)-2-(oxetan-3-yl)isoindolin-1-one]: 9 nM; for `CNc1nc(Nc2cc3c(cc2Cl)c(C(=O)N2CCNCC2)cn3C)ncc1C(F)(F)F` [Compound 28, (5-chloro-1-methyl-6-(4-(methylamino)-5-(trifluoromethyl)pyrimidin-2-ylamino)-1H-indol-3-yl)(piperazin-1-yl)methanone]: 4 nM.
The same measure for `CNc1nc(Nc2cc3c(cc2OC)C(=O)N(CC(C)(C)O)C3)ncc1C(F)(F)F` [Compound 23, 2-(2-hydroxy-2-methylpropyl)-6-methoxy-5-(4-(methylamino)-5-(trifluoromethyl)pyrimidin-2-ylamino)isoindolin-1-one]: 10 nM; for `CNc1nc(Nc2cc3c(cc2Cl)c(C(=O)N(C)C)cn3C)ncc1C(F)(F)F` [Compound 27, 5-chloro-N,N,1-trimethyl-6-(4-(methylamino)-5-(trifluoromethyl)pyrimidin-2-ylamino)-1H-indole-3-carboxamide]: 6 nM.
The same measure for `CCNc1nc(Nc2cc3c(cc2OC)C(=O)N(C2COC2)C3)ncc1C(F)(F)F` [Compound 26, 5-(4-(ethylamino)-5-(trifluoromethyl)pyrimidin-2-ylamino)-6-methoxy-2-(oxetan-3-yl)isoindolin-1-one]: 2 nM; for `CCNc1nc(Nc2cc3c(cc2OC)C(=O)N(CC(C)(C)O)C3)ncc1C(F)(F)F` [Compound 24, 5-(4-(ethylamino)-5-(trifluoromethyl)pyrimidin-2-ylamino)-2-(2-hydroxy-2-methylpropyl)-6-methoxyisoindolin-1-one]: 3 nM.
